1 compound from US10179914B2, “CDC25A inhibitor for the treatment of drug resistant cancer or for the prevention of tumor relapse” (INSERM (INSTITUT NATIONAL DE LA SANTÉ ET DE LA RECHERCHE …, priority 2014, dated 2019) can be followed below.

For this test, the system named is FLT3-ITD primary AML cells from patients. In words: Differentiation of FLT3-ITD primary AML samples. Format: cell-based, human. The method, then: (a) 4 primary samples from patients carrying the FLT3-ITD mutation (ITD #1-4) were treated for 6 days with IRC-083864 (100 nM), and the expression of CD14 (upper panel) and CD15 (lower panel) was followed by flow cytometry analysis. (b) Quantification (mean±SEM, n=4) of CD14 and CD15 expression in response to IRC-083864. (c) The morphology of primary cells from patients used in (a) was analyzed by microscopy after 6 days and 9 days of treatment with IRC-083864. Original magnification ×100.
Patient samples. Patient AML samples were obtained after informed consent in accordance with the Declaration of Helsinki and stored at the HIMIP collection. According to the French law, HIMIP collection has been declared to the Ministry of Higher Education and Research (DC 2008-307 collection 1) and obtained a transfer agreement (AC 2008-129) after approbation by ethical committees (Comité de Protection des Personnes Sud-Ouest et Outremer II and APHP ethical committee). […]
Flow cytometry. Apoptotic cells were detected with Annexin V-FITC detection kit from BD Pharmingen (San Diego, Calif., USA) according to the manufacturer instructions. […] Data were collected on a LSRII or a LSRFortessa cytometer (BD Biosciences), and analyzed with FlowJo software. […]

With `Cc1nc2c(s1)C(=O)C=C(NCCCN(C)CCCNC1=CC(=O)c3nc(-c4cc(F)ccc4F)oc3C1=O)C2=O` [IRC-083864], the “expression of CD14” value (100 nM, 6 days) is given as “increased”. Further, the “morphology of primary cells” value (days 6 and 9) is given as “monocytic-like morphological nuclear changes”.
